Assay results: ChEMBL document CHEMBL1146819, “Synthesis and SAR of 2-arylbenzoxazoles, benzothiazoles and benzimidazoles as inhibitors of lysophosphatidic acid acyltransferase-beta” (Bioorg Med Chem Lett, 2004)
The source made the active and inactive calls.

Tests used:
[1] = molecular target: T1, 1-acyl-sn-glycerol-3-phosphate acyltransferase beta (Homo sapiens, UniProt O15120); assay: Inhibitory concentration against human lysophosphatidic acid acyltransferase-beta (LPAAT-beta) expressed in Sf9 insect cell membranes
T1 sequence (O15120 whole entry): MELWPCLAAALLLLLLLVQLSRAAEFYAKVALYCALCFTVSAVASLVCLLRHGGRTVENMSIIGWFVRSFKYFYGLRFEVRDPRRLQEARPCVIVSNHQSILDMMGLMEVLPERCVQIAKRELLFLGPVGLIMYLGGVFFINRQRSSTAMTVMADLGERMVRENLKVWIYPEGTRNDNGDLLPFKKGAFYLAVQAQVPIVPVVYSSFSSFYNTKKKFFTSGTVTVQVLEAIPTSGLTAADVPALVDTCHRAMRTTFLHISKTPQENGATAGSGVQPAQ

[2] = molecular target: T2, 1-acyl-sn-glycerol-3-phosphate acyltransferase alpha (Homo sapiens) (UniProt Q99943); assay: Inhibitory activity against human lysophosphatidic acid acyltransferase-alpha (LPAAT-alpha) expressed in Sf9 insect cell membranes at <20 uM; Not active
T2 sequence (whole entry): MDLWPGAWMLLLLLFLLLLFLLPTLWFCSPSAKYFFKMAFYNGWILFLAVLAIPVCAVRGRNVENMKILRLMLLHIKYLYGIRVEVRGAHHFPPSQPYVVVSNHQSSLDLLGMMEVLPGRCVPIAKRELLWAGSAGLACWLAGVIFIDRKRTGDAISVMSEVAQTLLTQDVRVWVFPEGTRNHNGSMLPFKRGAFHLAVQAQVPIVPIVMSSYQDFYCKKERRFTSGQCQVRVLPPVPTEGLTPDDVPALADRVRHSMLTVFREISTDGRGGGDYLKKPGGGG

MCF7 [3] = assay: In vitro inhibitory concentration of compound against proliferation of MCF-7 breast carcinoma cells; Range is 30-40 uM; format: functional, cell-based; conditions: Homo sapiens
DU-145 = assay: In vitro inhibitory concentration of compound against proliferation of DU145 prostate carcinoma cells; format: functional, cell-based; conditions: Homo sapiens
MCF7 [4] = assay: In vitro inhibitory concentration of compound against proliferation of MCF-7 breast carcinoma cells; format: functional, cell-based; conditions: Homo sapiens

Compound	IC50 [1]	Activity [2]	IC50 (MCF7 [3])	IC50 (DU-145)	IC50 (MCF7 [4])
COC(=O)Nc1ccc(Cl)c(-c2nc3cc(C)ccc3n2C)c1	11000 nM	inactive			
CCCC(=O)Nc1ccc(Cl)c(-c2nc3cc(C)ccc3o2)c1	2500 nM	inactive			
C#CCOC(=O)Nc1ccc(Cl)c(-c2nc3cc(C(F)(F)F)ccc3s2)c1		inactive	40000 nM	20000 nM	
COC(=O)Nc1cccc(-c2nc3cc(C)ccc3o2)c1	> 64000 nM	inactive			
CC(=O)Nc1ccc(Cl)c(-c2nc3cc(C)ccc3o2)c1	2500 nM	inactive			
COC(=O)Nc1ccc(F)c(-c2nc3cc(C)ccc3o2)c1	> 64000 nM	inactive			
COC(=O)Nc1ccc(Cl)c(-c2nc3cc(Cl)ccc3s2)c1		inactive			
COC(=O)Nc1ccc(Cl)c(-c2nc3cc(C(F)(F)F)ccc3s2)c1		inactive			
C#CCOC(=O)Nc1ccc(Cl)c(-c2nc3c(C)cccc3o2)c1		inactive			
CCOC(=O)Nc1ccc(Cl)c(-c2nc3cc(C)ccc3o2)c1	1500 nM	inactive			
COC(=O)Nc1ccc(Cl)c(-c2nc3cc(Cl)ccc3o2)c1		inactive			
C#CCOC(=O)Nc1ccc(Cl)c(-c2nc3cc(Cl)ccc3o2)c1		inactive		50000 nM	15000 nM
COC(=O)Nc1ccc(Cl)c(-c2nc3cc(C(=O)O)ccc3o2)c1	> 20000 nM	inactive			
N#CCC(=O)Nc1ccc(Cl)c(-c2nc3cc(Cl)ccc3s2)c1		inactive			
CC#CC(=O)Nc1ccc(Cl)c(-c2nc3cc(Cl)ccc3o2)c1	> 20000 nM	inactive			
Cc1ccc2oc(-c3cc(NC(=O)CO)ccc3Cl)nc2c1	31000 nM	inactive			
C#CCOC(=O)Nc1ccc(Cl)c(-c2nc3cc(C)ccc3o2)c1		inactive			
COC(=O)Nc1ccc(Cl)c(-c2nc3cc(-c4ccccc4)ccc3o2)c1	64000 nM	inactive			
CC#CC(=O)Nc1ccc(Cl)c(-c2nc3cc(C)ccc3o2)c1	> 20000 nM	inactive			
COC(=O)Nc1ccc(Cl)c(-c2nc3c(C)cccc3s2)c1	9000 nM	inactive			

Compound	IC50 [1]	Activity [2]	IC50 (MCF7 [3])	IC50 (DU-145)	IC50 (MCF7 [4])
C#CCOC(=O)Nc1ccc(Cl)c(-c2nc3cc(C(F)(F)F)ccc3[nH]2)c1	5200 nM	inactive			
Cc1ccc2oc(-c3cc(NC(=O)c4ccccc4)ccc3Cl)nc2c1	40000 nM	inactive			
COC(=O)Nc1ccc(Cl)c(-c2nc3ccc(C)cc3n2C)c1	> 20000 nM	inactive			
CN(C)CC(=O)Nc1ccc(Cl)c(-c2nc3cc(Cl)ccc3o2)c1	> 5000 nM	inactive			
CNCC(=O)Nc1ccc(Cl)c(-c2nc3cc(Cl)ccc3o2)c1	> 5000 nM	inactive			
Cc1ccc2oc(-c3cc(NC=O)ccc3Cl)nc2c1	> 5000 nM	inactive			
COC(=O)Nc1ccc(Cl)c(-c2nc3cc(O)ccc3o2)c1	> 20000 nM	inactive			
Cc1ccc2oc(-c3cc(NC(=O)OC(C)C)ccc3Cl)nc2c1	16000 nM	inactive			
CCCOC(=O)Nc1ccc(Cl)c(-c2nc3cc(C)ccc3o2)c1	12000 nM	inactive			
COC(=O)Nc1ccc(OC)c(-c2nc3cc(C)ccc3o2)c1	64000 nM	inactive			
C#CCOC(=O)Nc1ccc(Cl)c(-c2nc3cc(Cl)ccc3s2)c1		inactive		> 50000 nM	> 50000 nM
COC(=O)Nc1ccc(C)c(-c2nc3cc(C)ccc3o2)c1		inactive			
C#CCOC(=O)Nc1ccc(Cl)c(-c2nc3ccccc3o2)c1		inactive		50000 nM	20000 nM
Cc1cc(-c2nc3ccccc3s2)ccc1N	> 40000 nM				
C#CCOC(=O)Nc1ccc(Cl)c(-c2nc3cc(Cl)ccc3n2C)c1		inactive			
Cc1ccc2oc(-c3cc(NCCCC#N)ccc3Cl)nc2c1	> 5000 nM				
C#CCOC(=O)Nc1ccc(Cl)c(-c2nc3cc(O)ccc3o2)c1	2000 nM	inactive			
COC(=O)Nc1ccc(Cl)c(-c2nc3ccccc3o2)c1		inactive			
COC(=O)Nc1ccc(Cl)c(-c2nc3ccc(C)cc3s2)c1	> 64000 nM	inactive			
C#CCOC(=O)Nc1ccc(Cl)c(-c2nc3cc(C(F)(F)F)ccc3o2)c1		inactive			

Further compounds by falling IC50 [1], results first:

IC50 [1]	Activity [2]	IC50 (MCF7 [3])	IC50 (DU-145)	IC50 (MCF7 [4])	Compound
1500 nM	inactive		40000 nM	40000 nM	CCC(=O)Nc1ccc(Cl)c(-c2nc3cc(C)ccc3o2)c1
1400 nM	inactive				C=CCOC(=O)Nc1ccc(Cl)c(-c2nc3cc(C)ccc3o2)c1
1000 nM	inactive				COC(=O)Nc1ccc(Cl)c(-c2nc3cc(C)ccc3o2)c1
950 nM	inactive				CNC(=O)Nc1ccc(Cl)c(-c2nc3cc(Cl)ccc3o2)c1
800 nM	inactive				COC(=O)Nc1ccc(Cl)c(-c2nc3cc(C(F)(F)F)ccc3o2)c1
650 nM	inactive				COC(=O)Nc1ccc(Cl)c(-c2nc3cc(Cl)ccc3n2C)c1
600 nM	inactive				Cc1ccc2oc(-c3cc(NC(=O)CN=[N+]=[N-])ccc3Cl)nc2c1
550 nM	inactive				COC(=O)Nc1ccc(C)c(-c2nc3cc(Cl)ccc3o2)c1
500 nM	inactive				COC(=O)Nc1ccc(Cl)c(-c2nc3c(C)cccc3o2)c1
500 nM	inactive				C#CCCC(=O)Nc1ccc(Cl)c(-c2nc3cc(C)ccc3o2)c1
400 nM	inactive				COC(=O)Nc1ccc(Cl)c(-c2nc3ccc(C)cc3o2)c1
300 nM	inactive				Cn1c(-c2cc(NC(=O)CC#N)ccc2Cl)nc2cc(Cl)ccc21
170 nM	inactive				[N-]=[N+]=NCC(=O)Nc1ccc(Cl)c(-c2nc3cc(Cl)ccc3o2)c1
120 nM	inactive				C#CCOC(=O)Nc1ccc(Cl)c(-c2nc3cc(C(F)(F)F)ccc3n2C)c1
100 nM	inactive				Cc1ccc2oc(-c3cc(NC(=O)CC#N)ccc3Cl)nc2c1
100 nM	inactive				C#CCOC(=O)Nc1ccc(C)c(-c2nc3cc(Cl)ccc3o2)c1
100 nM	inactive				C#CCCC(=O)Nc1ccc(Cl)c(-c2nc3cc(Cl)ccc3o2)c1
100 nM	inactive				C#CCNC(=O)Nc1ccc(Cl)c(-c2nc3cc(Cl)ccc3o2)c1
75 nM	inactive				C#CCCOC(=O)Nc1ccc(Cl)c(-c2nc3cc(Cl)ccc3o2)c1
75 nM	inactive				CC#CCOC(=O)Nc1ccc(Cl)c(-c2nc3cc(Cl)ccc3o2)c1
70 nM	inactive				Cc1ccc(NC(=O)CC#N)cc1-c1nc2ccccc2s1
50 nM	inactive				N#CCC(=O)Nc1ccc(Cl)c(-c2nc3cc(C(F)(F)F)ccc3s2)c1
27 nM	inactive				N#CCC(=O)Nc1ccc(Cl)c(-c2nc3cc(Cl)ccc3o2)c1
15 nM	inactive				C#CCOC(=O)Nc1ccc(C)c(-c2nc3cc(Cl)ccc3s2)c1
